Assay results taken from US12415939B2, “Nano-adhesive and surface primer compound and use thereof” (The Regents of the University of California, priority 2015, dated 2025).

Columns and labels:
[1] = OFET characterization (saturation hole mobility); conditions: Au source and drain electrodes
From the text: The OFETs were fabricated onto nano-grooved SiO2 substrates prepared by rubbing n^++Si (500 μm)/SiO2 (300 nm) substrate (International Wafer Services Co.) with a diamond lapping disc with particle sizes of 100 nm (Allied High Tech Products Inc.) as described in detail in the previous reports. The Ni (5 nm)/Au (50 nm) source and drain electrodes were patterned on the SiO2 dielectrics through a conventional photolithography process. For OFETs with Ni source and drain electrodes, an additional Ni (10 nm) layer was deposited on top of the pre-deposited Au electrodes. All metal electrodes were deposited by electron beam evaporation at 7×10^−7 Torr. Then, the substrates were sonicated in acetone and isopropanol for cleaning, and were kept in an oven at >100° C. for overnight. After ultraviolet/ozone treatment of pre-cleaned nano-grooved SiO2 substrates for 10 min, the substrates were passivated with the Z-Cat-Ben or Z-Cat-Ben-F SAM by dropping SAM water solution (5 mM) onto the substrates for ˜1 min. The substrates were subsequently rinsed with deionized water for ˜1 min, and were kept in a low vacuum for 10 min to remove residual water. The PCDTPT (1-Material Inc.) was then cast from a chlorobenzene solution (0.25 mg mL^−1) through the sandwich casting in a nitrogen-filled glove box. The devices were then cured at 200° C. for 1 min prior to measurements, and were tested using a probe station (Signatone Co.) in a nitrogen-filled glove box. Data were collected by a Keithley 4200 system.
The field-effect mobilities in the saturation regime were extracted using the following equation, IDS=(W/2L)Cμ(VGS−VT)^2 (7) where, W is the channel width, L is the channel length, C is the gate dielectric capacitance per unit area, μ is the carrier mobility in the saturation regime, IDS is the drain-source current, and VGS is the gate-source voltage. Channel width/length is 1000/200 μm for the devices used in this study. Transistor Characteristics of OFETs with Z-Cat-Ben and Z-Cat-Ben-F: Contact Angle Measurements: […]

[2] = AFM adhesion force runs with silica probe on Z-Cat-C10 coated silicon wafer; format: physicochemical
Experimental: AFM force runs were measured with and without Z-Cat-C10 on silicon wafer and copper plate, respectively, vs. silicon dioxide probe. Underwater force run was conducted for the surface prepared subsequently after spreading the 5 mM Z-Cat-C10, waiting for 2 min, rinsing thoroughly with degassed DI water thoroughly for 3 times. Dry force run was performed after ˜5 min dry of the surface prepared as for the underwater force run. […] Cantilever spring constant (K) for #=10 μm silica tip on silicon wafer and copper plate with Z-Cat-C10, was 0.1 N m^−1.
The measured adhesion, Fa, force (minimum of the potential well of the F vs. D curves obtained from AFM measurements) is related to the adhesion energy per unit area by Wa=Fa/2πR for rigid surfaces with weak adhesive interactions, and by Wa=Fa/1.5πR (used in this study) for soft deformable surfaces with strong adhesion or cohesion. Since copper surface (RMS˜2 nm) is rougher than silicon wafer (RMS<1 nm), the Wa on copper surface was comparatively weaker than the Wa of silicon wafer. Hydroxide/oxide on copper surface also weakens the adhesion to copper plate compared to just oxide on silicon wafer (see FIGS. 18-23). […]
The adhesion/cohesion energy of the synthetic zwitterionic molecules was investigated in SFA (SurForce LLC, Santa Barbara, CA). Two molecularly smooth freshly cleaved back silvered mica surfaces glued on cylindrical silica discs of radius of curvature, R˜2 cm, were mounted in the SFA and 50 μL of a colloidal dispersion of the synthetic molecules in DI water were injected between the surfaces at different concentrations (C=0.5-5 mM) and the forces between the thin films of the molecules were measured by Multiple Beam Interferometry (MBI). The adhesion forces between Z-Cat-C10 molecules on various surfaces, e.g., silica and copper, were also measured by AFM (MFP-3D, Asylum research, Goleta, CA) in DI water and ambient conditions, respectively, at room temperature. […] Cantilever spring constants were measured for each force run. […]

[3] = Critical aggregation concentration by Wilhelmy plate tensiometry; format: physicochemical; conditions: DI water
Experimental: (§1) Aqueous colloidal dispersions of each homolog were prepared in deoxygenated deionized (DI) water. The critical aggregation concentration (CAC) was determined from the solution surface tension of varying homolog concentrations in deionized (DI) water (e.g., see the red line of Z-Cat-C10 in FIG. 2B) by Wilhelmy plate tensiometry and has been described elsewhere. Use of the CAC instead of CMC here is a hedge to accommodate the uncertainty about whether micelles or other soluble aggregates were forming.
as §1, with “the” for “the red”

[4] = AFM images of Z-Cat-C10 films; format: physicochemical; conditions: 5 mM, on silicon wafers and copper
Experimental: The adhesion/cohesion energy of the synthetic zwitterionic molecules was investigated in SFA (SurForce LLC, Santa Barbara, CA). Two molecularly smooth freshly cleaved back silvered mica surfaces glued on cylindrical silica discs of radius of curvature, R˜2 cm, were mounted in the SFA and 50 μL of a colloidal dispersion of the synthetic molecules in DI water were injected between the surfaces at different concentrations (C=0.5-5 mM) and the forces between the thin films of the molecules were measured by Multiple Beam Interferometry (MBI). The adhesion forces between Z-Cat-C10 molecules on various surfaces, e.g., silica and copper, were also measured by AFM (MFP-3D, Asylum research, Goleta, CA) in DI water and ambient conditions, respectively, at room temperature. AFM probes with a silicon dioxide particle (10, 5, and 1 μm, respectively) on a silicon nitride (SN) cantilever-0.6 N m^−1 were purchased from Novascan Technologies, Inc (Ames, IA). Cantilever spring constants were measured for each force run. Images of Z-Cat-C10 coating on silicon wafer and copper plates were visualized in an AFM.

critical aggregation concentration (CAC), rank [3] | film thickness (thin, molecularly smooth films) [4] [nm] | SMILES | saturation hole mobility μ [1] [cm^2 V^−1 s^−1] | dry Wad relative to catecholic polysiloxane ([2]; SiO2 and SiO2 surfaces) [fold] | adhesion Wad after air-drying ([2]; air-dried ~5 min, SiO2 and SiO2 surfaces) [mJ m^−2] | wet work of adhesion Wad ([2]; underwater, SiO2 and SiO2 interface, 5 mM coating) [mJ m^−2]
 |  | C[N+](C)(CCCc1ccccc1)CCOP(=O)([O-])OCCCc1ccc(O)c(O)c1 [Z-Cat-Ben] | 22±4 |  |  | 
lowest CAC among the homologs | ~2 | CN(C)CCOP(=O)(O)OCCCc1ccc(O)c(O)c1 [Z-Cat-C10] |  | 50 | ~175 | ~7.7
